Earlier results as cited in patent US5093372A, “Novel pharmaceutical composition comprising exifone and water-soluble polymer” (Fujisawa Pharmaceutical Co. Inc., priority 1987, dated 1992).

Columns and labels:
[1] = orally administered as a conventional pharmaceutical composition

solubility in water (in words): sparingly soluble in water
saturated solubility in water (about): 70 to 80 µg/mL
absorption into blood circulation (in words) [1]: poor
bioavailability (in words) [1]: low
Compound: O=C(c1cc(O)c(O)c(O)c1)c1ccc(O)c(O)c1O [exifone]
